± gives the expanded uncertainty stated by the source.
Assay: mn = molality of the nth substance listed, in mol/kg
Details: 350 kPa, Liquid; for apparent molar heat capacity: Extra sensitive DSC

OC[C@@H](O)[C@@H](O)[C@@H](O)CO [SRS-1,2,3,4,5-pentanepentol] + O
Details	apparent molar heat capacity [J/K/mol]	mass density [kg/m3]
278.15 K, m1 = 0.0196	335 ± 49	1001.15 ± 0.17
278.15 K, m1 = 0.0506	329.5 ± 20	1002.66 ± 0.18
278.15 K, m1 = 0.1042	335.2 ± 10	1005.31 ± 0.18
278.15 K, m1 = 0.2591	334.4 ± 5.6	1012.83 ± 0.2
278.15 K, m1 = 0.5092	334.9 ± 4.3	1024.77 ± 0.22
278.15 K, m1 = 0.9969	336.5 ± 3.9	1046.03 ± 0.26
278.15 K, m1 = 1.998	336.2 ± 3.8	1084.53 ± 0.34
278.15 K, m1 = 3.177	339.7 ± 3.7	1119.46 ± 0.42
283.15 K, m1 = 0.0196	354 ± 50	1000.8 ± 0.17
283.15 K, m1 = 0.0506	343 ± 20	1002.31 ± 0.17
283.15 K, m1 = 0.1042	350.4 ± 10	1004.94 ± 0.18
283.15 K, m1 = 0.2591	349.6 ± 5.5	1012.39 ± 0.19
283.15 K, m1 = 0.5092	349.7 ± 4.2	1024.17 ± 0.22
283.15 K, m1 = 0.9969	350.6 ± 3.7	1045.12 ± 0.26
283.15 K, m1 = 1.998	349.4 ± 3.6	1083.19 ± 0.34
283.15 K, m1 = 3.177	351.5 ± 3.5	1117.64 ± 0.41
288.15 K, m1 = 0.0196	368 ± 49	1000.18 ± 0.17
288.15 K, m1 = 0.0506	354.3 ± 20	1001.7 ± 0.17
288.15 K, m1 = 0.1042	362 ± 10	1004.3 ± 0.18
288.15 K, m1 = 0.2591	361.4 ± 5.3	1011.68 ± 0.19
288.15 K, m1 = 0.5092	361.4 ± 4	1023.3 ± 0.22
288.15 K, m1 = 0.9969	361.7 ± 3.5	1044.05 ± 0.26
288.15 K, m1 = 1.998	359.9 ± 3.4	1081.81 ± 0.34
288.15 K, m1 = 3.177	361.1 ± 3.2	1115.96 ± 0.41
293.15 K, m1 = 0.0196	377 ± 46	–
293.15 K, m1 = 0.0506	365.3 ± 19	–
293.15 K, m1 = 0.1042	371.7 ± 10	–
293.15 K, m1 = 0.2591	371.2 ± 5.2	–
293.15 K, m1 = 0.5092	371 ± 3.9	–
293.15 K, m1 = 0.9969	371 ± 3.4	–
293.15 K, m1 = 1.998	368.5 ± 3.2	–
293.15 K, m1 = 3.177	369.4 ± 3	–
298.15 K, m1 = 0.0196	385 ± 45	998.09 ± 0.18
298.15 K, m1 = 0.0506	375.1 ± 18	999.6 ± 0.17
298.15 K, m1 = 0.1042	380.2 ± 9.7	1002.18 ± 0.17
298.15 K, m1 = 0.2591	379.6 ± 4.9	1009.48 ± 0.19
298.15 K, m1 = 0.5092	379.3 ± 3.7	1020.79 ± 0.21
298.15 K, m1 = 0.9969	379 ± 3.2	1041.23 ± 0.25
298.15 K, m1 = 1.998	376.1 ± 3	1078.43 ± 0.33
298.15 K, m1 = 3.177	376.6 ± 3	1112.13 ± 0.4
303.15 K, m1 = 0.0196	392 ± 44	–
303.15 K, m1 = 0.0506	383.2 ± 18	–
303.15 K, m1 = 0.1042	387.5 ± 9.5	–
303.15 K, m1 = 0.2591	386.8 ± 4.8	–
303.15 K, m1 = 0.5092	386.4 ± 3.6	–
303.15 K, m1 = 0.9969	385.9 ± 3	–
303.15 K, m1 = 1.998	382.8 ± 2.9	–
303.15 K, m1 = 3.177	383 ± 2.8	–
308.15 K, m1 = 0.0196	397 ± 44	995.08 ± 0.18
308.15 K, m1 = 0.0506	389.5 ± 18	996.56 ± 0.18
308.15 K, m1 = 0.1042	393.6 ± 9.2	999.1 ± 0.17
308.15 K, m1 = 0.2591	393 ± 4.8	1006.35 ± 0.18
308.15 K, m1 = 0.5092	392.6 ± 3.4	1017.44 ± 0.2
308.15 K, m1 = 0.9969	392 ± 3	1037.61 ± 0.25
308.15 K, m1 = 1.998	388.8 ± 2.9	1074.35 ± 0.32
308.15 K, m1 = 3.177	388.8 ± 2.8	1107.66 ± 0.39
313.15 K, m1 = 0.0196	403 ± 43	–
313.15 K, m1 = 0.0506	395.7 ± 17	–
313.15 K, m1 = 0.1042	399.2 ± 9.1	–
313.15 K, m1 = 0.2591	398.6 ± 4.7	–
313.15 K, m1 = 0.5092	398.2 ± 3.4	–
313.15 K, m1 = 0.9969	397.4 ± 2.9	–
313.15 K, m1 = 1.998	394.1 ± 2.7	–
313.15 K, m1 = 3.177	393.9 ± 2.6	–
318.15 K, m1 = 0.0196	408 ± 42	991.29 ± 0.19
318.15 K, m1 = 0.0506	401.1 ± 17	992.73 ± 0.19
318.15 K, m1 = 0.1042	404.3 ± 8.9	995.28 ± 0.18
318.15 K, m1 = 0.2591	403.7 ± 4.6	1002.45 ± 0.18
318.15 K, m1 = 0.5092	403.2 ± 3.3	1013.36 ± 0.2
318.15 K, m1 = 0.9969	402.3 ± 2.9	1033.3 ± 0.24
318.15 K, m1 = 1.998	398.9 ± 2.7	1069.71 ± 0.31
318.15 K, m1 = 3.177	398.6 ± 2.6	1102.66 ± 0.38
323.15 K, m1 = 0.0196	412.3 ± 42	–
323.15 K, m1 = 0.0506	405.8 ± 17	–
323.15 K, m1 = 0.1042	408.7 ± 8.8	–
323.15 K, m1 = 0.2591	408.1 ± 4.6	–
323.15 K, m1 = 0.5092	407.6 ± 3.3	–
323.15 K, m1 = 0.9969	406.7 ± 2.9	–
323.15 K, m1 = 1.998	403.3 ± 2.7	–
323.15 K, m1 = 3.177	402.8 ± 2.6	–
328.15 K, m1 = 0.0196	415.7 ± 41	986.75 ± 0.2
328.15 K, m1 = 0.0506	409.7 ± 17	988.19 ± 0.19
328.15 K, m1 = 0.1042	412.7 ± 8.7	990.72 ± 0.19
328.15 K, m1 = 0.2591	412.2 ± 4.4	997.84 ± 0.17
328.15 K, m1 = 0.5092	411.6 ± 3.3	1008.63 ± 0.19
328.15 K, m1 = 0.9969	410.7 ± 2.7	1028.38 ± 0.23
328.15 K, m1 = 1.998	407.3 ± 2.5	1064.46 ± 0.3
328.15 K, m1 = 3.177	406.7 ± 2.5	1097.15 ± 0.37
333.15 K, m1 = 0.0196	419.1 ± 41	–
333.15 K, m1 = 0.0506	413.4 ± 16	–
333.15 K, m1 = 0.1042	416.3 ± 8.7	–
333.15 K, m1 = 0.2591	415.8 ± 4.5	–
333.15 K, m1 = 0.5092	415.3 ± 3.3	–
333.15 K, m1 = 0.9969	414.3 ± 2.7	–
333.15 K, m1 = 1.998	410.9 ± 2.5	–
333.15 K, m1 = 3.177	410.3 ± 2.5	–
338.15 K, m1 = 0.0196	422.2 ± 40	981.58 ± 0.21
338.15 K, m1 = 0.0506	416.9 ± 16	983.05 ± 0.21
338.15 K, m1 = 0.1042	419.6 ± 8.6	985.54 ± 0.2
338.15 K, m1 = 0.2591	419.2 ± 4.5	992.64 ± 0.19
338.15 K, m1 = 0.5092	418.6 ± 3.2	1003.33 ± 0.18
338.15 K, m1 = 0.9969	417.6 ± 2.7	1022.96 ± 0.22
338.15 K, m1 = 1.998	414.3 ± 2.5	1058.79 ± 0.29
338.15 K, m1 = 3.177	413.6 ± 2.5	1091.26 ± 0.36
343.15 K, m1 = 0.0196	424.8 ± 40	–
343.15 K, m1 = 0.0506	420 ± 16	–
343.15 K, m1 = 0.1042	422.7 ± 8.5	–
343.15 K, m1 = 0.2591	422.2 ± 4.4	–
343.15 K, m1 = 0.5092	421.6 ± 3.2	–
343.15 K, m1 = 0.9969	420.6 ± 2.7	–
343.15 K, m1 = 1.998	417.3 ± 2.5	–
343.15 K, m1 = 3.177	416.5 ± 2.5	–
348.15 K, m1 = 0.0196	427.6 ± 40	975.89 ± 0.22
348.15 K, m1 = 0.0506	422.8 ± 16	977.36 ± 0.22
348.15 K, m1 = 0.1042	425.4 ± 8.5	979.79 ± 0.21
348.15 K, m1 = 0.2591	424.9 ± 4.4	986.84 ± 0.2
348.15 K, m1 = 0.5092	424.3 ± 3.2	997.49 ± 0.18
348.15 K, m1 = 0.9969	423.3 ± 2.7	1017.01 ± 0.21
348.15 K, m1 = 1.998	420.1 ± 2.5	1052.65 ± 0.28
348.15 K, m1 = 3.177	419.3 ± 2.5	1084.97 ± 0.35
353.15 K, m1 = 0.0196	429.6 ± 40	–
353.15 K, m1 = 0.0506	424.8 ± 16	–
353.15 K, m1 = 0.1042	427.8 ± 8.4	–
353.15 K, m1 = 0.2591	427.3 ± 4.4	–
353.15 K, m1 = 0.5092	426.7 ± 3.2	–
353.15 K, m1 = 0.9969	425.7 ± 2.7	–
353.15 K, m1 = 1.998	422.6 ± 2.5	–
353.15 K, m1 = 3.177	421.8 ± 2.5	–
358.15 K, m1 = 0.0196	431.8 ± 40	969.65 ± 0.24
358.15 K, m1 = 0.0506	426.7 ± 16	971.12 ± 0.23
358.15 K, m1 = 0.1042	430.1 ± 8.4	973.52 ± 0.23
358.15 K, m1 = 0.2591	429.5 ± 4.4	980.54 ± 0.21
358.15 K, m1 = 0.5092	428.9 ± 3.2	991.18 ± 0.19
358.15 K, m1 = 0.9969	427.9 ± 2.6	1010.61 ± 0.19
358.15 K, m1 = 1.998	424.9 ± 2.5	1046.1 ± 0.27
358.15 K, m1 = 3.177	424 ± 2.3	1078.29 ± 0.33
363.15 K, m1 = 0.0196	433.8 ± 40	–
363.15 K, m1 = 0.0506	427.7 ± 16	–
363.15 K, m1 = 0.1042	431.7 ± 8.5	–
363.15 K, m1 = 0.2591	431.2 ± 4.4	–
363.15 K, m1 = 0.5092	430.7 ± 3.2	–
363.15 K, m1 = 0.9969	429.8 ± 2.6	–
363.15 K, m1 = 1.998	426.9 ± 2.5	–
363.15 K, m1 = 3.177	425.9 ± 2.3	–
368.15 K, m1 = 0.0196	–	962.93 ± 0.25
368.15 K, m1 = 0.0506	–	964.44 ± 0.25
368.15 K, m1 = 0.1042	–	966.8 ± 0.24
368.15 K, m1 = 0.2591	–	973.76 ± 0.23
368.15 K, m1 = 0.5092	–	984.4 ± 0.21
368.15 K, m1 = 0.9969	–	1003.76 ± 0.18
368.15 K, m1 = 1.998	–	1039.13 ± 0.26
368.15 K, m1 = 3.177	–	1071.22 ± 0.32
